The values below come from patent US20050202508A1, “Biomarker for Parkinson's disease” (priority 2003, published 2005).

The test system of series [1] is SY5Y neuroblastoma catecholaminergic cells. The experiment in a line: MPP+ toxicity in SY5Y cells, MTT assay. In kind it is cell-based. The note with it: 24 hr after exposure to MPP+; dose dependent; FIG. 9. How it is done:
The PD biomarker DCD-1 promotes neurotoxicity in SY5Y cells in a dose dependent manner. In this study cell toxicity in SY5Y cells was assessed 24 hr after exposure to MPP+ using methylthiazoletetrazolium [3 (4,5-dimethylthiazol-2-yl)-2,5-diphenyltetrazolium bromide] (MTT) calorimetric assay, (an index or altered energy metabolism). Values represent Means+SEM of determinations from 2 separate cultures, n=3 cultures chambers per group * P<0.05 between MPP+ and MPP+ and DCD-1 treatment (see FIG. 9).
(Tetrazolium dyes change colour on reduction, which living cells bring about.)

The test system of another series is PD patients. To be noted: cited from earlier work.
Series [2] has as its target PIF cell surface receptor (DCD receptor) (human). Briefly: Scatchard analysis of AP-PIF binding to human SH-SY5Y neuronal cells.
The subject of another series is substantia nigra. Briefly: In vivo MRM T2-weighted imaging of substantia nigra after MPTP lesion. Also noted: species or system mouse. The source says: The goal of this study was to develop a non-invasive methodology for functionally assessing the predicative role of novel protein biomarkers in CSF (and serum) for experimental MPTP SN neurodegeneration in pre-clinical models of PD (Aim 4) using MRM imaging technology in collaboration with Dr. Cheuk Tang (Collaborator, Imaging Sciences Laboratory, Dept. Neuroradiology) and Dr. Patrick Hof (Collaborator, Advance Imaging Program, Center for Neurobiology), of Mount Sinai Medical School. The studies are based on the principle that increased iron content found in SN of PD and MPTP models of PD^29-31 may be an index of SN neurodegeneration, which can be monitored by MRM^32,33, longitudinally. Given that MRM measurement is highly sensitive to iron content in SN dopaminergic cells, we hypothesized that MRM may offer a means for non-invasive evaluation of SN neurodegeneration. In exciting ongoing studies, using a 9.4 Tesla micro MRM imager (Bruker Instrument) we collected matched consecutive rostro-caudal T2-weighted in vivo MRM images of the whole brain from the same mouse, prior to and four-days after SN MPTP lesion. […] As predicted, this observation of hypo-intense MRM measurements in the SN post-lesioning is consistent with an elevation in iron content in the degenerating nigrostriatal DAergic neurons. […]

For series [3], the system named is substantia nigra DAergic neurons. In kind it is in vivo, mouse.
Experimental: In this study SN DAergic lesions in male C57B6/SJ mice were obtained by i.p. MPTP injection (four consecutive injections at 2 hr intervals; 20 mg/kg/body weight (BW) per injection 27); saline injected mice were used as a control (n=4 per group). Four days following MPTP (or saline) injection, mice were anesthetized using a combination of ketamine (50 mg/kg BW) and xylazine (5 mg/kg BW), CSF was then collected from cisterna magna, as previously described^28. Immediately after CSF collection (4 days post-lesioning), mice were sacrificed by cervical dislocation and the brain was collected, preserved under cryoprotection and stored at −80° C. 1 μl of CSF from each animal was analyzed by SELDI technology as described in FIG. 1. […] In panel 3B, number of thyroxine hydroxylase (TH)-immunoreactive DAergic neurons in the SN counted stereologically, with data are expressed as mean+SEM for MPTP and saline groups. In panels A and B, n=4 per group; *P<0.05.
A further series relates to PIF mRNA. The experiment in a line: PIF mRNA expression after MPP+ treatment, northern blot. In kind it is cell-based. The note with it: MPP+ treatment 12 hr, enriched rat DAergic neuron cultures, FIG. 12A. An excerpt: (§1) The exact molecular mechanisms leading to the pathophysiology of PD are not well understood. MPP^+, a mitochondrial complex I inhibitor, produces PD-type symptoms in humans and laboratory animals and has been used to investigate PD pathogenesis^12,13. MPP^+, the ultimate metabolite of MPTP, is taken up into DAergic neurons where it accumulates in mitochondria and works to inhibit complex I activity. Although the mechanism of MPP^+-induced neurotoxicity is not fully understood, there is increasing evidence supporting the involvement of reactive oxygen species (ROS)^14. […]
(§2) For these studies enriched mesecephalic DAergic cultures were obtained from E16 Sprague Dawley embryos and cultured for 10 days in poly 1-ornithine coated culture dish at a density of 0.5×10^6 cells per well and maintained in Neurobasal medium with B-27 supplement and 0.5 mM glutamine, as previously described^16. In A, following MPP^+ treatment for 12 hr, total RNA was extracted from the neuronal cultures using Ultraspec RNA (Biotecx) and PIF mRNA expression assessed by northern blot hybridization assay using ^32p labeled hPIF cDNA^17 and quantified by phospho-imaging (Molecular Dynamics). […] Non-specific transport was determined in parallel assays conducted in the presence of 1 uM GBR12909 and incorporated [^3H]-dopamine was extracted with NaOH (0.5M) and quantified by liquid scintillation spectrometry

For series [4], the system named is rat mesencephalic DAergic neuron cultures. The experiment in a line: MPP+-mediated neurotoxicity in enriched rat mesencephalic DAergic neuron cultures, [3H]-dopamine uptake assay. In kind it is cell-based.
Excerpt: as §1, §2

The next series has as its system α-synuclein. The experiment in a line: alpha-synuclein immunoblot in enriched DAergic neuron cultures after hrPIF treatment. It is filed as cell-based, rat. An excerpt:
Because of the recent evidence showing increased α-synuclein expression increases vulnerability to MPP/MPTP^19, we decided to explore the possibility that PIF might have promoted DAergic neurodgeneration through mechanisms that involve α-synuclein expression. […] This evidence is also consistent with work in Drosophila where overexpression of α-synuclein leads to DAergic toxicity^22. In these studies (see FIG. 13) 10 days old enriched […] cultures were obtained as discussed in FIG. 12. In A, following treatment with increasing concentrations of hrPIF, cultures lysed in each well using SDS-PAGE (5 mM Tris-HCl, 2% SDS, 0.1 M DTT, 0.001% Bromphenol blue, 10% glycerol, pH6.8) sample buffer. […] After 5 min incubation at RT in buffer, the Triton X-100 soluble fraction was gently collected from the-dish-. -The remaining Triton-insoluble material was gently rinsed once with ice cold PBS, and collected in buffer N (0.1 M Na2CO3, pH 11.5 with protease inhibitor cocktails). In C, the Triton-insoluble synuclein fraction was collected in the pellet by centrifugation at 16,000 g for 10 min and dissolved in 1×SDS buffer. Immunoblots used monoclonal anti α-synuclein antibody (1:1000, BD Bioscience) and immunoreactivities were visualized densitometrically.
For orientation: In western blotting, separated proteins are transferred to a membrane and probed.

As for “DCD-1: human recombinant DCD-1, aa 63-109 of dermcidin precursor, 4.7 kDa (SEQ ID NO:1) (SSLLEKGLDGAKKAVGGLGKLGKDAVEDLESVGKGAVHDVKDVLDSV; homo sapiens)”, the “effect on MPP+ mediated death (MTT)” value in series [1] was “potentiates MPP+ mediated death”.
For `N[C@@H](Cc1ccc(O)c(O)c1)C(=O)O` [L-dopa], in the series with PD patients, the “extension of lifespan of PD patients, on average” value was “one”.
Broadly, the Kd is the equilibrium constant for the complex coming apart. In series [2], “N-terminal alkaline phosphatase (AP) C-terminal PIF (DCD) precursor protein fusion protein (from UniProt P81605 20-110) (ligand)” gave a Kd of 0.051 µM and a maximum binding concentration (receptors per cell) (PIF receptors per cell) of 30000.
For the molecule `CN1CC=C(c2ccccc2)CC1` [MPTP], the “decrease in SN T2 density / T2-weighted values vs pre-lesion” value with substantia nigra (after MPTP lesion, n=2, 9.4 Tesla MRM) is “approximately 25%”. Moreover, the “average normalized SN T2 density (SN T2 density/temporal T2 density)” value in the series with substantia nigra (post-MPTP lesioning, N=2 animals) is 0.6904 ± 0.05. Besides, in series [3] (MPTP i.p. 4 x 20 mg/kg, 4 days post-lesioning, stereological count), the “loss of tyrosine hydroxylase (TH) immunopositive neurons” value is recorded as “approximately 25%”. In series [3] (mouse, in vivo), the “4.6 kDa anionic DCD-like protein in CSF” value is “induced”.
Take `C[n+]1ccc(-c2ccccc2)cc1` [MPP^+, 1-Methyl-4-phenylpyridinium ion]: the “PIF mRNA expression” value in the series with PIF mRNA was “dose dependently induced”.

B1: hrPIF: human recombinant full length dermicidin, His-tagged, expressed in M15 bacterial cells (protein)
chain: YDPEAASAPGSGNPCHEASAAQKENAGEDPGLARQAPKPRKQRSSLLEKGLDGAKKAVGGLGKLGKDAVEDLESVGKGAVHDVKDVLDSVL
modifications: left off: small tags and cut ends
notes: human recombinant full length dermicidin, His-tagged, expressed in M15 bacterial cells
Turning to B1, the “potentiation of MPP+-mediated neurotoxicity, dopamine uptake assay” value in series [4] (exogenous hrPIF with MPP+, 12 hours, FIG. 12B) is around 1.5 fold. In addition, the “potentiation of MPP+-induced neurotoxicity” value in series [4] (exogenous hrPIF, rat mesencephalic DAergic neuron cultures, summary statement) is given as around 2 fold. Also, in the series with α-synuclein (Triton X-100 soluble fraction, FIG. 13B), the “soluble oligomeric α-synuclein protofibrils” value was “accumulation”. The “aggregated α-synuclein” value in the series on α-synuclein (Triton-insoluble fraction, FIG. 13C) was “not aggregated α-synuclein”. Besides, the “expression of total α-synuclein” value in the series on α-synuclein (hrPIF treatment, FIG. 13A) is “increased expression”.
